Tested on: Jurkat cells
Assay: (r) Cell cytotoxicity assay
Assay type: cell-based, human
Conditions: 24 hours
Procedure: 1×10^5 Jurkat cells (immortalised human T lymphocytes) are added to the appropriate number of wells of a 96 well plate in 100 μL of media (RPMI supplemented with 10% foetal bovine serum). 1 μL of DMSO control (final concentration 1.0% v/v) or test compound (final concentration 20, 5 or 1 μg/mL) is added to the wells and incubated at 37° C., 5% CO2. After 24 hours, the plate is centrifuged at 1200 rpm for 3 minutes and the supernatant discarded. Cells are then resuspended in 150 μL (final concentration 7.5 μg/mL) of propidium iodide (PI) in PBS and incubated at 37° C., 5% CO2 for 15 minutes. After 15 minutes, cells are analysed by flow cytometry (BD accuri) using the FL3 window. The % viability is calculated as the % of cells that are PI negative in the test wells normalised to the DMSO control.

Row | SMILES | % Viability at 1 μg/mL [%] | % Viability at 5 μg/mL [%] | % Viability at 20 μg/mL [%]
1 | COc1cc(Nc2nccc(Oc3ccc(NC(=O)Nc4cc(C(C)(C)C)cc(NS(C)(=O)=O)c4OC)c4ccccc34)n2)ccc1C(=O)NCCCN1CCN(C)CC1 [17(ap), 4-((4-((4-(3-(5-(tert-Butyl)-2-methoxy-3-(methylsulfonamido)phenyl)ureido)naphthalen-1-yl)oxy)pyrimidin-2-yl)amino)-2-methoxy-N-(3-(4-methylpiperazin-1-yl)propyl)benzamide] | 97.8 | 40.1 | 0.6
2 | COc1cc(Nc2cc(Oc3ccc(NC(=O)Nc4cc(C(C)(C)C)cc(NS(C)(=O)=O)c4OC)c4ccccc34)ccn2)ccc1C(=O)N[C@@H](CO)C(=O)O [17(bj), (S)-2-(4-((4-((4-(3-(5-(tert-Butyl)-2-methoxy-3-(methylsulfonamido)phenyl)ureido)-naphthalen-1-yl)oxy)pyridin-2-yl)amino)-2-methoxybenzamido)-3-hydroxypropanoic acid] | 96.2 | 96.6 | 94.8
3 | COc1cc(Nc2cc(Oc3ccc(NC(=O)Nc4cc(C(C)(C)C)cc(NS(C)(=O)=O)c4OC)c4ccccc34)ccn2)cc(OC)c1C(=O)NCCCN1CCN(C)CC1 [17(au), 4-((4-((4-(3-(5-(tert-Butyl)-2-methoxy-3-(methylsulfonamido)phenyl)ureido)naphthalen-1-yl)oxy)pyridin-2-yl)amino)-2,6-dimethoxy-N-(3-(4-methylpiperazin-1-yl)propyl)benzamide] | 94.0 | 91.8 | 80.6
4 | COc1cc(Nc2cc(Oc3ccc(NC(=O)Nc4cc(C(C)(C)C)cc(NS(C)(=O)=O)c4OC)c4ccccc34)ccn2)ccc1C(=O)NCCOCCOCCC(=O)O [17(x), 3-[2-[2-[[4-[[4-[[4-[[5-tert-butyl-3-(methanesulfonamido)-2-methoxyphenyl]carbamoyl-amino]-1-naphthyl]oxy]-2-pyridyl]amino]-2-methoxy-benzoyl]amino]ethoxy]ethoxy]propanoic acid] | 95.4 | 94.2 | 38.9
5 | COc1c(NC(=O)Nc2ccc(Oc3ccnc(Nc4ccc(C(=O)NCCCN5CCOCC5)c(O)c4)c3)c3ccccc23)cc(C(C)(C)C)cc1NS(C)(=O)=O [Example 29, 4-((4-((4-(3-(5-(tert-Butyl)-2-methoxy-3-(methylsulfonamido)phenyl)ureido)naphthalen-1-yl)oxy)pyridin-2-yl)amino)-2-hydroxy-N-(3-morpholinopropyl)benzamide] | 101.2 | 46.6 | 2.0
6 | CCN1CCN(CCNC(=O)c2ccc(Nc3cc(Oc4ccc(NC(=O)Nc5cc(C(C)(C)C)cc(NS(C)(=O)=O)c5OC)c5ccccc45)ccn3)cc2OC)CC1 [17(be), 4-((4-((4-(3-(5-(tert-Butyl)-2-methoxy-3-(methylsulfonamido)phenyl)ureido)naphthalen-1-yl)oxy)pyridin-2-yl)amino)-N-(2-(4-ethylpiperazin-1-yl)ethyl)-2-methoxybenzamide] | 92.4 | 0.7 | 0.5
7 | COc1c(NC(=O)Nc2ccc(Oc3ccnc(Nc4ccc(C(=O)NCCOCCOCCO)c(N(C)C)c4)c3)c3ccccc23)cc(C(C)(C)C)cc1NS(C)(=O)=O [17(bt), 4-((4-((4-(3-(5-(tert-Butyl)-2-methoxy-3-(methylsulfonamido)phenyl)ureido)naphthalen-1-yl)oxy)pyridin-2-yl)amino)-2-(dimethylamino)-N-(2-(2-(2-hydroxyethoxy)ethoxy)ethyl) benzamide] | 89.8 | 39.9 | 22.5
8 | COc1cc(Nc2cc(Oc3ccc(NC(=O)Nc4cc(C(C)(C)C)cc(NS(C)(=O)=O)c4OC)c4ccccc34)ccn2)ccc1C(=O)N(C)CCN1CCOCC1 [17(ab), 4-[[4-[[4-[[5-tert-butyl-3-(methanesulfonamido)-2-methoxy-phenyl]carbamoylamino]-1-naphthyl]oxy]-2-pyridyl]amino]-2-methoxy-N-methyl-N-(2-morpholinoethyl)benzamide] | 108.6 | 95.6 | 93.9
9 | COc1cc(Nc2nccc(Oc3ccc(NC(=O)Nc4cc(C(C)(C)C)cc(NS(C)(=O)=O)c4OC)c4ccccc34)n2)ccc1C(=O)NCCOCCOCCO [17(by), 4-((4-((4-(3-(5-(tert-Butyl)-2-methoxy-3-(methylsulfonamido)phenyl)ureido)naphthalen-1-yl)oxy)pyrimidin-2-yl)amino)-N-(2-(2-(2-hydroxyethoxy)ethoxy)ethyl)-2-methoxybenzamide] | 102.4 | 81.5 | 1.6
10 | COc1cc(Nc2cc(Oc3ccc(NC(=O)Nc4cc(C(C)(C)C)cc(NS(C)(=O)=O)c4OC)c4ccccc34)ccn2)ccc1C(=O)NCCCC[C@H](N)C(=O)O [17(bu), (S)-2-Amino-6-(4-((4-((4-(3-(5-(tert-butyl)-2-methoxy-3-(methylsulfonamido)phenyl)-ureido)naphthalen-1-yl)oxy)pyridin-2-yl)amino)-2-methoxybenzamido)hexanoic acid] | 92.6 | 92.6 | 91.7
11 | COc1cc(Nc2cc(Oc3ccc(NC(=O)Nc4cc(C(C)(C)C)cc(NS(C)(=O)=O)c4OC)c4ccccc34)ccn2)ccc1C(=O)NCCC1(O)CCN(C)CC1 [17(bg), 4-((4-((4-(3-(5-(tert-Butyl)-2-methoxy-3-(methylsulfonamido)phenyl)ureido)naphthalen-1-yl)oxy)pyridin-2-yl)amino)-N-(2-(4-hydroxy-1-methylpiperidin-4-yl)ethyl)-2-methoxy benzamide] | 86.5 | 60.0 | 0.3
12 | COc1cc(Nc2cc(Oc3ccc(NC(=O)Nc4cc(C(C)(C)C)cc(NS(C)(=O)=O)c4OC)c4ccccc34)ccn2)ccc1C(=O)NCCO [17(bn), 4-((4-((4-(3-(5-(tert-Butyl)-2-methoxy-3-(methylsulfonamido)phenyl)ureido)naphthalen-1-yl)oxy)pyridin-2-yl)amino)-N-(2-hydroxyethyl)-2-methoxybenzamide] | 102.8 | 65.6 | 19.5
13 | COc1cc(Nc2cc(Oc3ccc(NC(=O)Nc4cc(C(C)(C)C)cc(NS(C)(=O)=O)c4OC)c4ccccc34)ccn2)ccc1S(=O)(=O)N(C)CCCN1CCN(C)CC1 [Example 25, 4-((4-((4-(3-(5-(tert-Butyl)-2-methoxy-3-(methylsulfonamido)phenyl)ureido)naphthalen-1-yl)oxy)pyridin-2-yl)amino)-2-methoxy-N-methyl-N-(3-(4-methylpiperazin-1-yl)propyl)benzenesulfonamide] | 91.8 | 78.9 | 0.7
14 | COc1cc(Nc2cc(Oc3ccc(NC(=O)Nc4cc(C(C)(C)C)cc(NS(C)(=O)=O)c4OC)c4ccccc34)ccn2)cc(OC)c1C(=O)NCCCN1CCOCC1 [Example 23, 4-((4-((4-(3-(5-(tert-Butyl)-2-methoxy-3-(methylsulfonamido)phenyl)ureido)naphthalen-1-yl)oxy)pyridin-2-yl)amino)-2,6-dimethoxy-N-(3-morpholinopropyl)benzamide] | 92.4 | 88.9 | 89.8
15 | COc1cc(Nc2cc(Oc3ccc(NC(=O)Nc4cc(C(C)(C)C)cc(NS(C)(=O)=O)c4OC)c4ccccc34)ccn2)cc(OC)c1C(=O)NCC1CCN(C)CC1 [17(ca), 4-((4-((4-(3-(5-(tert-Butyl)-2-methoxy-3-(methylsulfonamido)phenyl)ureido)naphthalen-1-yl)oxy)pyridin-2-yl)amino)-2,6-dimethoxy-N-((1-methylpiperidin-4-yl)methyl)benzamide] | 92.6 | 94.0 | 75.8
16 | COc1cc(Nc2cc(Oc3ccc(NC(=O)Nc4cc(C(C)(C)C)cc(NS(C)(=O)=O)c4OC)c4ccccc34)ccn2)cc(OC)c1C(=O)NC1CCN(C)CC1 [17(bz), 4-((4-((4-(3-(5-(tert-Butyl)-2-methoxy-3-(methylsulfonamido)phenyl)ureido)naphthalen-1-yl)oxy)pyridin-2-yl)amino)-2,6-dimethoxy-N-(1-methylpiperidin-4-yl)benzamide] | 93.6 | 92.7 | 64.1
17 | COc1cc(Nc2cc(Oc3ccc(NC(=O)Nc4cc(C(C)(C)C)cc(NS(C)(=O)=O)c4OC)c4ccccc34)ccn2)ccc1C(=O)N[C@H]1C(O)O[C@H](CO)[C@@H](O)[C@@H]1O (stereo partly drawn) [17(br), 4-((4-((4-(3-(5-(tert-Butyl)-2-methoxy-3-(methylsulfonamido)phenyl)ureido)naphthalen-1-yl)oxy)pyridin-2-yl)amino)-2-methoxy-N-((3R,4R,5S,6R)-2,4,5-trihydroxy-6-(hydroxymethyl)tetrahydro-2H-pyran-3-yl)benzamide] | 91.8 | 90.7 | 79.2
18 | COc1cc(Nc2cc(Oc3ccc(NC(=O)Nc4cc(C(C)(C)C)cc(NS(C)(=O)=O)c4OC)c4ccccc34)ccn2)ccc1C(=O)NCCOCCO [17(bm), 4-((4-((4-(3-(5-(tert-Butyl)-2-methoxy-3-(methylsulfonamido)phenyl)ureido)naphthalen-1-yl)oxy)pyridin-2-yl)amino)-N-(2-(2-hydroxyethoxy)ethyl)-2-methoxybenzamide] | 103.6 | 0.2 | 0.5
